Measurements taken from patent US11186564B2, “Dual NAV1.2/5HT2a inhibitors for treating CNS disorders” (Sunovion Pharmaceuticals Inc., priority 2016, dated 2021).
Read-outs that look alike come from different tables or passages of the source.

Assays:
[1] = target: human sodium channel NaV1.2 (Homo sapiens, UniProt Q99250); assay: NaV1.2 inhibition, automated patch-clamp (Q-Patch HTX), slow inactivated state (state C); type: cell-based; conditions: for inhibition at 1 µM: 1 μM compound, read-out: NaV1.2 (% inh), 1 μM
Chain of human sodium channel NaV1.2 (Q99250 whole entry): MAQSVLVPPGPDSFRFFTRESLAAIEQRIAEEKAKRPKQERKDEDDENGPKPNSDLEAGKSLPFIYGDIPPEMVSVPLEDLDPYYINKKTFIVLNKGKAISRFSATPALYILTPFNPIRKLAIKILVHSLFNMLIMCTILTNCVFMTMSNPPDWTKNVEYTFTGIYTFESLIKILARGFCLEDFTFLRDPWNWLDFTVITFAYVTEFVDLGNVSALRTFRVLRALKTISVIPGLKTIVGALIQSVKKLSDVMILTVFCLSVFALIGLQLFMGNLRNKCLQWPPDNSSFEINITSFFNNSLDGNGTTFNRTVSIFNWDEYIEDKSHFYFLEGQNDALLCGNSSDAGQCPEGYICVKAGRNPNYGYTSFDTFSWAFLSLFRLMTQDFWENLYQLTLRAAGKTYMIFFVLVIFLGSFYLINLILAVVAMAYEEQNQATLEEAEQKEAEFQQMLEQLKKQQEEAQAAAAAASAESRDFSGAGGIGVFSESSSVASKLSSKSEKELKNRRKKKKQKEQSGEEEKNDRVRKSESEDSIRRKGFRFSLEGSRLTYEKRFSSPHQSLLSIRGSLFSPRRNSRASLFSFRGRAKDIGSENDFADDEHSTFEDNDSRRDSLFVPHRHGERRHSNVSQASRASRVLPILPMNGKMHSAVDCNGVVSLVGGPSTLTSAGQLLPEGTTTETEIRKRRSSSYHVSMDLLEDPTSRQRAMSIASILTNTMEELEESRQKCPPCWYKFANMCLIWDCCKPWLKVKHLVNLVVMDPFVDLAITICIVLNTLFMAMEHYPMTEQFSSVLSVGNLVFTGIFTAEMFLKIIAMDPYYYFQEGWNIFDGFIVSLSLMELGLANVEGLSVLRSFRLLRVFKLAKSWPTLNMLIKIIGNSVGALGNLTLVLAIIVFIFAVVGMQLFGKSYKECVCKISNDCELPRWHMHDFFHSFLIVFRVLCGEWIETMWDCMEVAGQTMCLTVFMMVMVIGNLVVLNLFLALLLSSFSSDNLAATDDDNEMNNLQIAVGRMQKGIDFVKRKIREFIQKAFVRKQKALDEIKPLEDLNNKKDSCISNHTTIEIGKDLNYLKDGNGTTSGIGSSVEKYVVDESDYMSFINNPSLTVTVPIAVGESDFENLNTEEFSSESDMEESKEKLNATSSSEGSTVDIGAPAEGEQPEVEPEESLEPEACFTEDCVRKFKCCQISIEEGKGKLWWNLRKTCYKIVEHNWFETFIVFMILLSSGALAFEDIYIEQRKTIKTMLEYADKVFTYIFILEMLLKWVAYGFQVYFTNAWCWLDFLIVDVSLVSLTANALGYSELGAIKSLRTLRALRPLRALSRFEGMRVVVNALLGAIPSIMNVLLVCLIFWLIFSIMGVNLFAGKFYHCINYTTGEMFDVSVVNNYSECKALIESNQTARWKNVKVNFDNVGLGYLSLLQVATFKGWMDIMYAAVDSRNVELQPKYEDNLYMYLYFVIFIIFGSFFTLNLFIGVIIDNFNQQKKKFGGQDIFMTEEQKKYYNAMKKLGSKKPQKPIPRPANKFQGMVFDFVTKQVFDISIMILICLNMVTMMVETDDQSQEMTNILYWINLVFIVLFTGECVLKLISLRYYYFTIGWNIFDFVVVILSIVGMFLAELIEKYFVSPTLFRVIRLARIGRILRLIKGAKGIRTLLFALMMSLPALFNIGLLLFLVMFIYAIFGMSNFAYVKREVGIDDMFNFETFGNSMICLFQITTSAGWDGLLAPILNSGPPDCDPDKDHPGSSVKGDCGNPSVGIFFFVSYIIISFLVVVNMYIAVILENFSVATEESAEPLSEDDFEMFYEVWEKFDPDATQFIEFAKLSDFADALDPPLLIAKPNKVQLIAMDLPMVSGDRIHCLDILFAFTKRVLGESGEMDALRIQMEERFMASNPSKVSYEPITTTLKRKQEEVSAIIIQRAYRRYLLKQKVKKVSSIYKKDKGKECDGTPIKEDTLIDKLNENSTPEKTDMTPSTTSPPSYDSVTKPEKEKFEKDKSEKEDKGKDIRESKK
Description: In vitro method for NaV1.2 inhibition assays: The methods utilized to assess the inhibitory activity of compounds on NaV1.2 were based on the methods described by Liu et al. [Liu Y, Beck E J, & Flores C M (2011): Validation of a patch clamp screening protocol that simultaneously measures compound activity in multiple states of the voltage-gated sodium channel Nav1.2. Assay Drug Development Technology 9, 628-634]. For these electrophysiology assays, a cell line (Chinese Hamster Ovarian K-1 cells (CHO K-1)) engineered to stably express human sodium channel NaV1.2 was purchased from Millipore Corporation (catalog no. CYL3023). The electrophysiology measurements were performed using automated patch-clamp methods on a Q-Patch HTX instrument by scientists at Evotec AG under contract with Sunovion.
The solutions utilized for the Qpatch experiments were similar buffered solutions to those described by Liu et al. [Liu Y, Beck E J, & Flores C M (2011)]. The extracellular solution contained 140 millimolar sodium chloride, 4 millimolar potassium chloride, 2 millimolar calcium chloride, 1 millimolar magnesium chloride, 10 millimolar 4-(2-hydroxyethyl)-1-piperazineethanesulfonic acid (HEPES), and 10 millimolar glucose (pH adjusted to 7.4 with sodium hydroxide). The intracellular solution contained 100 millimolar cesium fluoride, 45 millimolar cesium chloride, 10 millimolar HEPES, 5 millimolar ethylene glycol tetraacetic acid (EGTA), and 5 millimolar glucose (pH adjusted to 7.2 with cesium hydroxide).
The biophysical experiments of Lui et al. [Liu Y, Beck E J, & Flores C M (2011)] were replicated to assess the fast, slow and total inactivation characteristics of the human Nav1.2 channel
Based upon results from studies of the fast, slow and total inactivation characteristics of the human Nav1.2 channel, a voltage protocol involving a sequence of consecutive pulses of current was used to measure channel activity in several states [Liu Y, Beck E J, & Flores C M (2011)]. The monolayer of CHO K-1 cells stably expressing human sodium channel NaV1.2 (hNaV1.2 CHO cells) was maintained in the Qpatch instrument at a potential of −100 millivolts (mV) except when the voltage protocol was being executed. The first pulse in the protocol involved a 100 millisecond depolarization to 0 mV to enable measurement of channel availability in the closed state (state A). The potential was then maintained at −90 mV for 15 milliseconds, followed by a five millisecond period of depolarization to 0 mV to enable measurement of channel availability after partial recovery from fast inactivation (state B). Next, the potential was maintained at −90 mV for 300 milliseconds, followed by ten seconds at −50 mV, 15 milliseconds at −90 mV, and finally another five millisecond period of depolarization to 0 mV to enable measurement of channel availability after additional recovery from fast inactivation and significant entry into the slow inactivated state (state C). Finally, after an additional 300 millisecond period at −90 mV, another five millisecond period of depolarization to 0 mV was employed to enable measurement of channel availability after partial recovery from the slow inactivated state (state D). Measurements of activity at state C were used to assess the activity of the NaV1.2 channel in the slow inactivated state. Comparison of activity after addition of test compounds or reference compounds with activity after addition of vehicle only provided a measure of percent remaining activity from which percent inhibition was calculated. […] A slight modification of this protocol was utilized to provide measurements as a function of compound concentration, which enabled IC50 values to be determined. IC50 values were calculated by non-linear least squares regression of the data (percent inhibition of ion channel NaV1.2 activity in the slow inactivated state) onto equation (1): % inhibition=100%/(1+(IC50/[compound]) equation (1)
J Pharmacol Exp Ther. 2008 July; 326(1):89-99.].

[2] = target: T1, recombinant human serotonin receptor 5-HT2A (Homo sapiens, UniProt P28223); assay: 5-HT2A antagonist Ca2+ assay in CHO-K1 cells (method A aequorin luminescence / method B FLIPR fluorescence); type: cell-based; conditions: antagonist mode vs EC80 of reference agonist, method A or B
T1 construct: expressed in transfected cells; method B: loaded with Ca2+ dye
T1 sequence (P28223 whole entry): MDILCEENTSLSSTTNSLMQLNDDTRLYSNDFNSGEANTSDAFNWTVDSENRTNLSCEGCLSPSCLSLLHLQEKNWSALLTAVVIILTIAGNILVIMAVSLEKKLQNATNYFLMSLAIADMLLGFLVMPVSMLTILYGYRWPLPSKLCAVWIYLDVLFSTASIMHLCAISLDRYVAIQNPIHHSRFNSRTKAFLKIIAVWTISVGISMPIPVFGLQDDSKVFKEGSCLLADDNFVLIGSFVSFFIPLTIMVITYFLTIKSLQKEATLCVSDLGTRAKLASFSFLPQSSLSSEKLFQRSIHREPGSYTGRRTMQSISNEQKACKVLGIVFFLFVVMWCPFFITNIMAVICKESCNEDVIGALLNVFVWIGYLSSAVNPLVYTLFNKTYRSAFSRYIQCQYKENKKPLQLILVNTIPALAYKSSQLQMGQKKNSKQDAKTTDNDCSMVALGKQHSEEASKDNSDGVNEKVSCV
In short: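 Method A: CHO-K1 cells co-expressing human 5-HT2A and mitochondrial apoaequorin were given reference agonist at EC80 15 min after compound, with luminescence read. Method B: dye-loaded 5-HT2A CHO-K1 cells were pretreated with compound, then given serotonin at EC80, with FLIPR fluorescence read. IC50s came from nonlinear fits of percent inhibition.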

[3] = hNaV1.2 CHO cells, slow inactivated state
[4] = hNaV1.2 CHO cells, slow inactivated state, read-out: NaV1.2 IC50
[5] = reference compound, Test 1, read-out: IC50 (μM) for NaV1.2 slow inactivated state, Test 1
[6] = reference compound, Test 2, read-out: IC50 (μM) for NaV1.2 slow inactivated state, Test 2
[7] = reference compound, Test 3, read-out: IC50 (μM) for NaV1.2 slow inactivated state, Test 3

Row | SMILES | IC50 ([2]; read-out: 5HT2A IC50) | also measured
1 | O[C@@H](COc1ccccc1)CN1CCC2(CCc3ccccc3O2)CC1 [Example 441, (R)-1-phenoxy-3-(spiro[chromane-2,4′-piperidin]-1′-yl)propan-2-ol] | 0.03 µM | inhibition at 1 µM [1, 3]: 17%
2 | CN1Cc2ccccc2C(CCN2CCC(Oc3ccc(F)cc3)CC2)C1 (stereo not drawn) [Example 180, 4-(2-(4-(4-fluorophenoxy)piperidin-1-yl)ethyl)-2-methyl-1,2,3,4-tetrahydroisoquinoline] | 0.32 µM | inhibition at 1 µM [1, 3]: 8%
3 | Fc1ccc(OC2COC3(C2)CN(CC2CCc4ccccc42)C3)cc1 (stereo not drawn) [Example 368, 2-((2,3-dihydro-1H-inden-1-yl)methyl)-7-(4-fluorophenoxy)-5-oxa-2-azaspiro[3.4]octane] | 0.15 µM | IC50 [1, 4]: 0.38 µM
4 | c1ccc(O[C@@H]2COC3(C2)CN(C[C@@H]2CCc4ccccc42)C3)cc1 (single isomer, unassigned) [Compound 364] | 0.08 µM | IC50 [1, 4]: 0.69 µM
5 | Fc1ccc(N2CCC3(CCN(CC4Cc5ccccc5C4)C3)C2)cc1 (stereo not drawn) [Example 340, 2-((2,3-dihydro-1H-inden-2-yl)methyl)-7-(4-fluorophenyl)-2,7-diazaspiro[4.4]nonane] | 0.1 µM | inhibition at 1 µM [1, 3]: 25%
6 | c1ccc([C@H]2COC3(CCN(C[C@@H]4CCc5ccccc54)CC3)C2)cc1 (single isomer, unassigned) [Compound 378] | 0.06 µM | IC50 [1, 4]: 0.77 µM
7 | Nc1nnc(-c2cccc(Cl)c2Cl)c(N)n1 [lamotrigine, reference compound] |  | IC50 [1, 5]: 34 µM; IC50 [1, 6]: 33 µM; IC50 [1, 7]: 25 µM
8 | NC(=O)N1c2ccccc2C=Cc2ccccc21 [carbamazepine, reference compound] |  | IC50 [1, 5]: 19 µM; IC50 [1, 6]: 22 µM
9 | CN1CCN(c2ncc(-c3cc(Cl)cc(Cl)c3Cl)c(N)n2)CC1 [sipatrigine] |  | IC50 [1, 5]: 1.6 µM; IC50 [1, 6]: 2.8 µM; IC50 [1, 7]: 0.6 µM; IC50 ([1]; reference compound, Test 4, read-out: IC50 (μM) for NaV1.2 slow inactivated state, Test 4): 0.5 µM
10 | N#Cc1ccc(O[C@H]2CCN(CCN3CCc4ccccc4C3=O)C2)cc1 [Example 32, (S)-4-((1-(2-(1-oxo-3,4-dihydroisoquinolin-2(1H)-yl)ethyl)pyrrolidin-3-yl)oxy) benzonitrile] | > 16.7 µM | 
11 | c1ccc(N2C[C@@H]3C[C@H]2CCN3CC2COCc3ccccc32)cc1 (stereo partly drawn) [Example 322, (1S,5R)-2-(isochroman-4-ylmethyl)-6-phenyl-2,6-diazabicyclo[3.2.1]octane] | > 3.16 µM | 
12 | COc1ccc2c(c1)C(C)(CN1CCC(Oc3ccccc3OC)CC1)CC2 (stereo not drawn) [Example 97, 1-((6-methoxy-1-methyl-2,3-dihydro-1H-inden-1-yl)methyl)-4-(2-methoxyphenoxy)piperidine] |  | IC50 [1, 4]: 0.08 µM
13 | c1ccc2c(c1)CC(CN1CCC3(CC1)OCc1ccccc13)C2 [Example 392, 1′-((2,3-dihydro-1H-inden-2-yl)methyl)-3H-spiro[isobenzofuran-1,4′-piperidine]] |  | IC50 ([2]; 5HT2A IC50, μM): 1.59 µM
14 | COc1ccccc1OC1CCN(CC2(C)Cc3ccccc3C2)CC1 [Example 146, 4-(2-methoxyphenoxy)-1-((2-methyl-2,3-dihydro-1H-inden-2-yl)methyl)piperidine] | > 1 µM | 
15 | COc1ccccc1O[C@H]1CCN(CCN2CCc3ccccc3C2=O)[C@@H]1C [Example 18, 2-(2-((2R,3S)-3-(2-methoxyphenoxy)-2-methylpyrrolidin-1-yl)ethyl)-3,4-dihydroisoquinolin-1(2H)-one] | 0.02 µM | 
16 | COc1ccc2c(c1)C(CN1CCN(c3ccccc3)CC1)CC2 (stereo not drawn) [Example 54, 1-((6-methoxy-2,3-dihydro-1H-inden-1-yl)methyl)-4-phenylpiperazine] |  | IC50 [1, 4]: 2.64 µM
17 | O[C@@H](COC1CCCCC1)CN1CC[C@@H]2C[C@H]1CN2c1ccccc1 [Example 327, (R)-1-(cyclohexyloxy)-3-((1S,5R)-6-phenyl-2,6-diazabicyclo[3.2.1]octan-2-yl)propan-2-ol] | > 3.16 µM | 
18 | c1ccc(CCN2CCC3(CCc4ccccc4O3)CC2)cc1 [Example 427, l′-phenethylspiro[chromane-2,4′-piperidine]] |  | inhibition at 10 µM ([1]; 10 μM compound, hNaV1.2 CHO cells, slow inactivated state, read-out: NaV1.2 (% inh), 10 μM): 81%
19 | c1ccc(OCCN2CCC(Oc3ccc4cccnc4c3)CC2)cc1 [Example 231, 7-((1-(2-phenoxyethyl)piperidin-4-yl)oxy)quinoline] | 0.79 µM | 
20 | O=C1c2ccccc2CCN1CCN1CC[C@@H](Oc2ccncc2)C1 [Example 29, (R)-2-(2-(3-(pyridin-4-yloxy)pyrrolidin-1-yl)ethyl)-3,4-dihydroisoquinolin-1(2H)-one] | > 16.7 µM | 
21 | c1ccc2c(c1)CC1(CCN(CC3Cc4ccncc4C3)CC1)O2 (stereo not drawn) [Example 398, 1′-((6,7-dihydro-5H-cyclopenta[c]pyridin-6-yl)methyl)-3H-spiro[benzofuran-2,4′-piperidine]] | 9.65 µM | 
22 | O[C@@H](COC1CCCCC1)CN1CC2(CC(Oc3ccccc3)CO2)C1 (stereo partly drawn) [Example 372, (2R)-1-(cyclohexyloxy)-3-(7-phenoxy-5-oxa-2-azaspiro[3.4]octan-2-yl)propan-2-ol] | 0.09 µM | 
23 | O[C@H](COC1CCCCC1)CN1C[C@H]2CC[C@@H](C1)N2c1ccccc1 [Example 300, (S)-1-(cyclohexyloxy)-3-((1R,5S)-8-phenyl-3,8-diazabicyclo[3.2.1]octan-3-yl)propan-2-ol] | > 10 µM | 
24 | COC[C@@H](NC(C)=O)C(=O)NCc1ccccc1 [lacosamide, reference compound] |  | IC50 [1]: 65 µM
25 | O=C1c2ccccc2CCN1CCN1CCC[C@@H](Oc2ccc(F)cc2)C1 [Example 264, (R)-2-(2-(3-(4-fluorophenoxy)piperidin-1-yl)ethyl)-3,4-dihydroisoquinolin-1(2H)-one] | 0.94 µM | 
26 | O=C1c2ccccc2CCN1CCN1CC[C@H](Oc2ccncc2)C1 [Example 30, (S)-2-(2-(3-(pyridin-4-yloxy)pyrrolidin-1-yl)ethyl)-3,4-dihydroisoquinolin-1(2H)-one] | > 16.7 µM | 
27 | Fc1ccc(N2CCC3(CCN(CC4Cc5ccncc5C4)C3)C2)cc1 (stereo not drawn) [Example 341, 2-((6,7-dihydro-5H-cyclopenta[c]pyridin-6-yl)methyl)-7-(4-fluorophenyl)-2,7-diazaspiro[4.4]nonane] | 3.12 µM | 
28 | CC1(OCC(O)CN2CCN(c3ccccc3)CC2)COc2ccccc21 (stereo not drawn) [Example 79, 1-((3-methyl-2,3-dihydrobenzofuran-3-yl)oxy)-3-(4-phenylpiperazin-1-yl)propan-2-ol] | 0.36 µM | 
29 | COc1ccccc1OC1CCN(CC2CCc3ccccc32)CC1 (stereo not drawn) [Example 105, 1-((2,3-dihydro-1H-inden-1-yl)methyl)-4-(2-methoxyphenoxy)piperidine] | 0.43 µM | 
30 | O[C@@H](COC1CCCCC1)CN1CCC[C@@H](Oc2ccc(F)cc2)C1 [Example 267, (R)-1-(cyclohexyloxy)-3-((R)-3-(4-fluorophenoxy)piperidin-1-yl)propan-2-ol] | 10.4 µM | 
